Here are results for 17 compounds from patent US20250136638A1, “9(11)-UNSATURATED NEUROACTIVE STEROIDS AND THEIR METHODS OF USE” (SAGE THERAPEUTICS, INC., priority 2018, published 2025).

As a reminder, the IC50 is the midpoint of a concentration-inhibition curve.

The target of this assay is rat brain cortical membranes ([35S]-TBPS binding, GABA receptor complex). The experiment in a line: Steroid inhibition of [35S]-TBPS binding. Particulars: 3 nM [35S]-TBPS, in the presence of 5 mM GABA. The protocol: [^35S]-t-Butylbicyclophosphorothionate (TBPS) binding assays using rat brain cortical membranes in the presence of 5 mM GABA has been described (Gee et al, J. Pharmacol. Exp. Ther. 1987, 241, 346-353; Hawkinson et al, Mol. Pharmacol. 1994, 46, 977-985; Lewin, A. H et al., Mol. Pharmacol. 1989, 35, 189-194).
Briefly, cortices are rapidly removed following decapitation of carbon dioxide-anesthetized Sprague-Dawley rats (200-250 g). The cortices are homogenized in 10 volumes of ice-cold 0.32 M sucrose using a glass/teflon homogenizer and centrifuged at 1500×g for 10 min at 4° C. The resultant supernatants are centrifuged at 10,000×g for 20 min at 4° C. to obtain the P2 pellets. The P2 pellets are resuspended in 200 mM NaCl/50 mM Na—K phosphate pH 7.4 buffer and centrifuged at 10,000×g for 10 min at 4° C. This washing procedure is repeated twice and the pellets are resuspended in 10 volumes of buffer. Aliquots ([…]) of the membrane suspensions are incubated with 3 nM [^35S]-TBPS and […] aliquots of test drug dissolved in dimethyl sulfoxide (DMSO) (final 0.5%) in the presence of 5 mM GABA. The incubation is brought to a final volume of 1.0 mL with buffer. Nonspecific binding is determined in the presence of […] and ranged from 15 to 25%. Following a 90 min incubation at room temp, the assays are terminated by filtration through glass fiber filters (Schleicher and Schuell No. 32) using a cell harvester (Brandel) and rinsed three times with ice-cold buffer. Filter bound radioactivity is measured by liquid scintillation spectrometry. Non-linear curve fitting of the overall data for each drug averaged for each concentration is done using Prism (GraphPad). […] The concentration of test compound producing 50% inhibition (IC50) of specific binding and the maximal extent of inhibition (Imax) are determined for the individual experiments with the same model used for the overall data and then the means±SEM.s of the individual experiments are calculated.
Various compounds are or can be screened to determine their potential as modulators of [^35S]-TBPS binding in vitro. These assays are or can be performed in accordance with the above.
With `CCOC[C@@]1(O)CC[C@]2(C)C3=CC[C@]4(C)[C@@H](C(C)=O)CC[C@H]4[C@@H]3CC[C@H]2C1` [Example 14, 1-((3R,5S,8S,10S,13S,14S,17S)-3-(ethoxymethyl)-3-hydroxy-10,13-dimethyl-2,3,4,5,6,7,8,10,12,13,14,15,16,17-tetradecahydro-1H-cyclopenta[a]phenanthren-17-yl)ethan-1-one], the IC50 fell in the range of 1000 to 10000 nM.

On to `COC[C@@]1(O)CC[C@]2(C)C3=CC[C@]4(C)[C@@H](C(=O)Cn5cc(C#N)cn5)CC[C@H]4[C@@H]3CC[C@@H]2C1` [Example 17, 1-(2-((3R,5R,8S,10S,13S,14S,17S)-3-hydroxy-3-(methoxymethyl)-10,13-dimethyl-2,3,4,5,6,7,8,10,12,13,14,15,16,17-tetradecahydro-1H-cyclopenta[a]phenanthren-17-yl)-2-oxoethyl)-1H-pyrazole-4-carbonitrile], for which the 50% inhibitory concentration (IC50) was 10 to 100 nM. As for `C[C@@]1(O)CC[C@]2(C)C3=CC[C@]4(C)[C@@H](C(=O)Cn5cc(C#N)cn5)CC[C@H]4[C@@H]3CC[C@@H]2C1` [Example 9, 1-(2-((3R,5R,8S,10S,13S,14S,17S)-3-hydroxy-3,10,13-trimethyl-2,3,4,5,6,7,8,10,12,13,14,15,16,17-tetradecahydro-1H-cyclopenta[a]phenanthren-17-yl)-2-oxoethyl)-1H-pyrazole-4-carbonitrile], the figure is 10 to 100 nM; as for `Cc1nnnn1CC(=O)[C@H]1CC[C@H]2[C@@H]3CC[C@H]4C[C@](C)(O)CC[C@]4(C)C3=CC[C@]12C` [Example 5, 1-((3R,5S,8S,10S,13S,14S,17S)-3-hydroxy-3,10,13-trimethyl-2,3,4,5,6,7,8,10,12,13,14,15,16,17-tetradecahydro-1H-cyclopenta[a]phenanthren-17-yl)-2-(5-methyl-1H-tetrazol-1-yl)ethan-1-one], 100 to 1000 nM.

For `C[C@@]1(O)CC[C@]2(C)C3=CC[C@]4(C)[C@@H](C(=O)Cn5nccn5)CC[C@H]4[C@@H]3CC[C@H]2C1` [Example 7, 1-((3R,5S,8S,10S,13S,14S,17S)-3-hydroxy-3,10,13-trimethyl-2,3,4,5,6,7,8,10,12,13,14,15,16,17-tetradecahydro-1H-cyclopenta[a]phenanthren-17-yl)-2-(2H-1,2,3-triazol-2-yl)ethan-1-one], the IC50 was 100 to 1000 nM. For the compound `C[C@@]1(O)CC[C@]2(C)C3=CC[C@]4(C)[C@@H](C(=O)Cn5ccnn5)CC[C@H]4[C@@H]3CC[C@H]2C1` [Example 6, 1-((3R,5S,8S,10S,13S,14S,17S)-3-hydroxy-3,10,13-trimethyl-2,3,4,5,6,7,8,10,12,13,14,15,16,17-tetradecahydro-1H-cyclopenta[a]phenanthren-17-yl)-2-(1H-1,2,3-triazol-1-yl)ethan-1-one], the half-inhibitory concentration (IC50) was 100 to 1000 nM. As for `Cc1nnn(CC(=O)[C@H]2CC[C@H]3[C@@H]4CC[C@H]5C[C@](C)(O)CC[C@]5(C)C4=CC[C@]23C)n1` [Example 4, 1-((3R,5S,8S,10S,13S,14S,17S)-3-hydroxy-3,10,13-trimethyl-2,3,4,5,6,7,8,10,12,13,14,15,16,17-tetradecahydro-1H-cyclopenta[a]phenanthren-17-yl)-2-(5-methyl-2H-tetrazol-2-yl)ethan-1-one], the figure is 100 to 1000 nM. With `CCOC[C@@]1(O)CC[C@]2(C)C3=CC[C@]4(C)[C@@H](C(C)=O)CC[C@H]4[C@@H]3CC[C@@H]2C1` [Example 15, 1-((3R,5R,8S,10S,13S,14S,17S)-3-(ethoxymethyl)-3-hydroxy-10,13-dimethyl-2,3,4,5,6,7,8,10,12,13,14,15,16,17-tetradecahydro-1H-cyclopenta[a]phenanthren-17-yl)ethan-1-one] the figure was 100 to 1000 nM.

Turning to `C[C@@]1(O)CC[C@]2(C)C3=CC[C@]4(C)[C@@H](C(=O)Cn5ccnn5)CC[C@H]4[C@@H]3CC[C@@H]2C1` [Example 12, 1-((3R,5R,8S,10S,13S,14S,17S)-3-hydroxy-3,10,13-trimethyl-2,3,4,5,6,7,8,10,12,13,14,15,16,17-tetradecahydro-1H-cyclopenta[a]phenanthren-17-yl)-2-(1H-1,2,3-triazol-1-yl)ethan-1-one], the IC50 fell in the range of 100 to 1000 nM. As for `CC(=O)[C@H]1CC[C@H]2[C@@H]3CC[C@@H]4C[C@](C)(O)CC[C@]4(C)C3=CC[C@]12C` [Example 8, 1-((3R,5R,8S,10S,13S,14S,17S)-3-hydroxy-3,10,13-trimethyl-2,3,4,5,6,7,8,10,12,13,14,15,16,17-tetradecahydro-1H-cyclopenta[a]phenanthren-17-yl)ethan-1-one], the concentration for half-maximal inhibition (IC50) was in the range of 10 to 100 nM. As for `C[C@@]1(O)CC[C@]2(C)C3=CC[C@]4(C)[C@@H](C(=O)Cn5cc(C#N)cn5)CC[C@H]4[C@@H]3CC[C@H]2C1` [Example 2, 1-(2-((3R,5S,8S,10S,13S,14S,17S)-3-hydroxy-3,10,13-trimethyl-2,3,4,5,6,7,8,10,12,13,14,15,16,17-tetradecahydro-1H-cyclopenta[a]phenanthren-17-yl)-2-oxoethyl)-1H-pyrazole-4-carbonitrile], the IC50 lay in the range of 10 to 100 nM.

`C[C@@]1(O)CC[C@]2(C)C3=CC[C@]4(C)[C@H](C(=O)Cn5cc(C#N)cn5)CC[C@H]4[C@@H]3CC[C@H]2C1` [Example 3, 1-(2-((3R,5S,8S,10S,13S,14S,17R)-3-hydroxy-3,10,13-trimethyl-2,3,4,5,6,7,8,10,12,13,14,15,16,17-tetradecahydro-1H-cyclopenta[a]phenanthren-17-yl)-2-oxoethyl)-1H-pyrazole-4-carbonitrile]: the IC50 was 1000 to 10000 nM. As for `Cc1nnnn1CC(=O)[C@H]1CC[C@H]2[C@@H]3CC[C@@H]4C[C@](C)(O)CC[C@]4(C)C3=CC[C@]12C` [Example 11, 1-((3R,5R,8S,10S,13S,14S,17S)-3-hydroxy-3,10,13-trimethyl-2,3,4,5,6,7,8,10,12,13,14,15,16,17-tetradecahydro-1H-cyclopenta[a]phenanthren-17-yl)-2-(5-methyl-1H-tetrazol-1-yl)ethan-1-one], the figure is 100 to 1000 nM; as for `Cc1nnn(CC(=O)[C@H]2CC[C@H]3[C@@H]4CC[C@@H]5C[C@](C)(O)CC[C@]5(C)C4=CC[C@]23C)n1` [Example 10, 1-((3R,5R,8S,10S,13S,14S,17S)-3-hydroxy-3,10,13-trimethyl-2,3,4,5,6,7,8,10,12,13,14,15,16,17-tetradecahydro-1H-cyclopenta[a]phenanthren-17-yl)-2-(5-methyl-2H-tetrazol-2-yl)ethan-1-one], 10 to 100 nM; as for `CC(=O)[C@H]1CC[C@H]2[C@@H]3CC[C@H]4C[C@](C)(O)CC[C@]4(C)C3=CC[C@]12C` [Example 1, 1-((3R,5S,8S,10S,13S,14S,17S)-3-hydroxy-3,10,13-trimethyl-2,3,4,5,6,7,8,10,12,13,14,15,16,17-tetradecahydro-1H-cyclopenta[a]phenanthren-17-yl)ethan-1-one], 100 to 1000 nM. As for `COC[C@@]1(O)CC[C@]2(C)C3=CC[C@]4(C)[C@@H](C(C)=O)CC[C@H]4[C@@H]3CC[C@@H]2C1` [Example 16, 1-((3R,5R,8S,10S,13S,14S,17S)-3-hydroxy-3-(methoxymethyl)-10,13-dimethyl-2,3,4,5,6,7,8,10,12,13,14,15,16,17-tetradecahydro-1H-cyclopenta[a]phenanthren-17-yl)ethan-1-one], the figure is 100 to 1000 nM; as for `C[C@@]1(O)CC[C@]2(C)C3=CC[C@]4(C)[C@@H](C(=O)Cn5nccn5)CC[C@H]4[C@@H]3CC[C@@H]2C1` [Example 13, 1-((3R,5R,8S,10S,13S,14S,17S)-3-hydroxy-3,10,13-trimethyl-2,3,4,5,6,7,8,10,12,13,14,15,16,17-tetradecahydro-1H-cyclopenta[a]phenanthren-17-yl)-2-(2H-1,2,3-triazol-2-yl)ethan-1-one], 10 to 100 nM.
